# Experimental data as given in US20140235863A1, “SUBSTITUTED 4-ARYLTHIAZOLES AND PROCESS OF PREPARATION THEREOF” (priority 2011, published 2014).
# Values joined by “and” are separate entries in the source; they are usually repeats but may differ in a detail not shown here. Equal values may be shown once.
# Tests used:
# M. tuberculosis H37Rv [1] = assay: Agar dilution assay (ADA), MIC; format: cell-based, Mycobacterium tuberculosis; conditions: for MIC / Mtb H37Rv MIC: 37° C., 4 weeks; for MIC: read-out: Mtb H37Rv MIC; for anti-TB activity relative to the drug NTZ (times better / more potent): MIC compared with NTZ MIC 52.12 μM
# M. tuberculosis H37Rv [2] = assay: BACTEC-460TB radiometric assay, MIC and growth index; format: cell-based, Mycobacterium tuberculosis; conditions: for Mtb growth inhibition, growth index (GI) vs days: day 1 to day 11, FIG. 5; for MIC: Mycobacterium tuberculosis, H37RV, BACTEC-460TB radiometric assay, read-out: Mtb H37Rv MIC (BACTEC)
# [3] = Cytotoxicity, Resazurin assay; format: cell-based, monkey; conditions: monkey, Resazurin assay, 72 h; read-out: In vitro cytotoxicity Vero cells CC50
# Description: (§1) Cytotoxicity Studies: The compounds for cytotoxicity were tested in an in vitro model for toxicity with Vero monkey kidney cells using Resazurin assay. […] Cells were exposed to dilutions of experimental and control drugs in triplicate for […] with each compound at a range of concentrations from 100-1.56 μg/ml. […] Each well had 100 μL of the test material in serially descending concentrations. After 72 h of incubation, 10 μL of Resazurin indicator solution (0.1%) was added and incubation was continued for 4-5 h. Any color change from purple to pink or colorless was recorded as positive. Fluorescence was measured of each sample with excitation wavelength at 530 nm and emission wavelength at 590 nm using the BMG Polar Star Galaxy. The CC50 values (50% inhibitory concentrations) were calculated by plotting fluorescence values using Microsoft excel template. The data from this toxicity testing and MIC values were used to calculate a selectivity index (SI), the ratio of CC50: MIC.
# Vero monkey kidney cells = assay: Cytotoxicity, Resazurin assay; format: cell-based; conditions: for cytotoxicity to Vero cells: FIG. 4; for selectivity index (SI): ratio CC50:MIC as stated in text b128 (fits BACTEC MIC); for SI (selectivity index): ratio CC50:MIC, Table 1 (agar dilution MIC)
# Description: as §1
# [4] = tested on: replicating and nonreplicating Mtb; conditions: cited from earlier work
# [5] = Mycobacterium tuberculosis, H37RV, 672 h
smiles,measurement,setting,value
"COc1ccc(-c2csc(NN=C3CCCc4c(OC)cccc43)n2)cc1OC [Compound 1a, 4-(3,4-dimethoxyphenyl)-2-(2-(5-methoxy-3,4-dihydronaphthalen-1(2H)-ylidene)hydrazinyl)-thiazole]",MIC,M. tuberculosis H37Rv [1]; [5],15.3 µM and 6.25 µg/mL
same,"Mtb growth inhibition, growth index (GI) vs days",M. tuberculosis H37Rv [2]; 6.25 μM,very effective for inhibiting the Mtb growth till day 11
same,MIC,M. tuberculosis H37Rv [2],6.25 µM
same,CC50 at 72 h,[3],> 244 µM
same,cytotoxicity to Vero cells,Vero monkey kidney cells; Resazurin assay,failed to show any cytotoxicity
same,selectivity index (SI),Vero monkey kidney cells,≥ 39
same,SI (selectivity index),Vero monkey kidney cells,≧16
same,melting point,,200 °C
"COc1cccc2c1CCCC2=NNc1nc(-c2ccc(Cl)cc2Cl)cs1 [Compound 1b, 4-(2,4-dichlorophenyl)-2-(2-(5-methoxy-3,4-dihydronaphthalen-1(2H)-ylidene)hydrazinyl)thiazole]",anti-TB activity relative to the drug NTZ (times better / more potent),M. tuberculosis H37Rv [1],about 2 times
same,MIC,M. tuberculosis H37Rv [1]; [5],29.9 µM and 12.5 µg/mL
same,melting point,,200 °C
"COc1cccc2c1CCCC2=NNc1nc(-c2ccc(F)cc2)cs1 [Compound 1c, 4-(4-fluorophenyl)-2-(2-(5-methoxy-3,4-dihydronaphthalen-1(2H)-ylidene)hydrazinyl)thiazole]",MIC,M. tuberculosis H37Rv [1]; listed as is,17.03 µM
same,MIC,M. tuberculosis H37Rv [1]; [5],17 µM and 6.25 µg/mL
same,"Mtb growth inhibition, growth index (GI) vs days",M. tuberculosis H37Rv [2]; 6.25 μM,comparatively lesser effective on day 10 onwards
same,MIC,M. tuberculosis H37Rv [2],6.25 µM
same,CC50 at 72 h,[3],> 244 µM
same,CC50,"Vero monkey kidney cells; Resazurin assay, 72 h, read-out: In vitro cytotoxicity Vero cells CC50",> 300 µM
same,cytotoxicity to Vero cells,Vero monkey kidney cells; Resazurin assay,failed to show any cytotoxicity
same,selectivity index (SI),Vero monkey kidney cells,≥ 48
same,SI (selectivity index),Vero monkey kidney cells,≧17
same,melting point,,198 °C
"COc1cccc2c1CCCC2=NNc1nc(-c2cccc([N+](=O)[O-])c2)cs1 [Compound 1d, 2-(2-(5-methoxy-3,4-dihydronaphthalen-1(2H)-ylidene)hydrazinyl)-4-(3-nitrophenyl)thiazole]",anti-TB activity relative to the drug NTZ (times better / more potent),M. tuberculosis H37Rv [1],about 2 times
same,MIC,M. tuberculosis H37Rv [1]; [5],31.7 µM and 12.5 µg/mL
same,melting point,,185 °C
"COc1ccc(-c2csc(NN=Cc3cn(Cc4ccc(Cl)cc4Cl)c4ccccc34)n2)cc1OC [Compound 2a, 2-(2-((1-(2,4-dichlorobenzyl)-1H-indol-3-yl)methylene)hydrazinyl)-4-(3,4-dimethoxyphenyl)thiazole]",Mtb H37Rv MIC,M. tuberculosis H37Rv [1],>12.50 µg/mL
same,MIC,M. tuberculosis H37Rv [1]; [5],> 12.5 µg/mL
same,melting point,,205 °C
"Clc1ccc(Cn2cc(C=NNc3nc(-c4ccc(Cl)cc4Cl)cs3)c3ccccc32)c(Cl)c1 [Compound 2b, 2-(2-((1-(2,4-dichlorobenzyl)-1H-indol-3-yl)methylene)hydrazinyl)-4-(2,4-dichlorophenyl)thiazole]",MIC,M. tuberculosis H37Rv [1]; [5],22.9 µM and 12.5 µg/mL
same,melting point,,185 °C
"Fc1ccc(-c2csc(NN=Cc3cn(Cc4ccc(Cl)cc4Cl)c4ccccc34)n2)cc1 [Compound 2c, 2-(2-((1-(2,4-dichlorobenzyl)-1H-indol-3-yl)methylene)hydrazinyl)-4-(4-fluorophenyl)thiazole]",Mtb H37Rv MIC,M. tuberculosis H37Rv [1],>12.50 µg/mL
same,MIC,M. tuberculosis H37Rv [1]; [5],> 12.5 µg/mL
same,melting point,,198 °C
"Fc1ccc(Nc2nc(-c3ccc(F)cc3)cs2)cc1 [Compound 6, N,4-bis(4-fluorophenyl)thiazol-2-amine]",anti-TB activity relative to the drug NTZ (times better / more potent),M. tuberculosis H37Rv [1],about 9 times
same,MIC,M. tuberculosis H37Rv [1]; [5],6.25 µM and 1.8 µg/mL
same,MIC,M. tuberculosis H37Rv [2],12.5 µM
same,"Mtb growth inhibition, growth index (GI) vs days",M. tuberculosis H37Rv [2]; ≧12.5 μM,effectively inhibit Mtb growth till day 11
same,melting point,,127 °C
"COc1ccc(OC)c(Nc2nc(-c3ccc(F)cc3)cs2)c1 [Compound 7a, N-(2,5-dimethoxyphenyl)-4-(4-fluorophenyl)thiazol-2-amine]",MIC,M. tuberculosis H37Rv [1]; [5],> 12.5 µg/mL
same,melting point,,160 °C
"COc1ccc(OC)c(Nc2nc(-c3cccc([N+](=O)[O-])c3)cs2)c1 [Compound 7b, N-(2,5-dimethoxyphenyl)-4-(3-nitrophenyl)thiazol-2-amine]",MIC,M. tuberculosis H37Rv [1]; [5],> 12.5 µg/mL
same,melting point,,154 °C
"COc1ccc(-c2csc(Nc3cc(OC)ccc3OC)n2)cc1 [Compound 7c, N-(2,5-dimethoxyphenyl)-4-(4-methoxyphenyl)thiazol-2-amine]",MIC,M. tuberculosis H37Rv [1]; [5],> 12.5 µg/mL
same,melting point,,104 °C
"COc1ccc(-c2csc(Nc3ccccc3C(F)(F)F)n2)cc1OC [Compound 8a, 4-(3,4-dimethoxyphenyl)-N-(2-(trifluoromethyl)phenyl)thiazol-2-amine]",MIC,M. tuberculosis H37Rv [1]; [5],> 12.5 µg/mL
same,melting point,,188 °C
"Fc1ccc(-c2csc(Nc3ccccc3C(F)(F)F)n2)cc1 [Compound 8b, 4-(4-fluorophenyl)-N-(2-(trifluoromethyl)phenyl)thiazol-2-amine]",MIC,M. tuberculosis H37Rv [1]; [5],> 12.5 µg/mL
same,melting point,,184 °C
"O=[N+]([O-])c1cccc(-c2csc(Nc3ccccc3C(F)(F)F)n2)c1 [Compound 8c, 4-(3-nitrophenyl)-N-(2-(trifluoromethyl)phenyl)thiazol-2-amine]",MIC,M. tuberculosis H37Rv [1]; [5],> 12.5 µg/mL
same,melting point,,182 °C
"COc1ccc(-c2csc(Nc3ccccc3C(F)(F)F)n2)cc1 [Compound 8d, 4-(4-methoxyphenyl)-N-(2-(trifluoromethyl)phenyl)thiazol-2-amine]",MIC,M. tuberculosis H37Rv [1]; [5],> 12.5 µg/mL
"NNC(=O)c1ccncc1 [Isoniazid (INH), Isoniazid, reference compound]",MIC,M. tuberculosis H37Rv [1]; [5],< 1 µg/mL
"CC(=O)Oc1ccccc1C(=O)Nc1ncc([N+](=O)[O-])s1 [Nitazoxanide (NTZ), Nitazoxanide]",MIC,[4]; nonreplicating Mtb,60.38 μM and 16 μg/mL
"[H]/N=C(/N)N[C@H]1[C@H](O)[C@@H](O)[C@H](O[C@@H]2O[C@@H](C)[C@](O)(C=O)[C@H]2O[C@@H]2O[C@@H](CO)[C@H](O)[C@@H](O)[C@@H]2NC)[C@@H](N/C(N)=N\[H])[C@@H]1O [Streptomycin (SM), Streptomycin, reference compound]",MIC,M. tuberculosis H37Rv [2],6 µM
"O=C(Nc1ncc([N+](=O)[O-])s1)c1ccccc1O [Tizaxonide (TIZ), Tizaxonide]","MIC of reference NTZ/TIZ, Mtb H37Rv","[4]; replicating Mtb, literature value listed with the agar dilution data",60.38 μM and 16.00 μg/mL
